Assays:
[1] = test system: LC-2/ad (CCDCl6-RET) cells; test: Cell proliferation assay (MTS), LC-2/ad cells; assay type: cell-based; conditions: LC-2/ad cells (CCDCl6-RET), 72 h incubation, MTS readout
Method: (§1) MTS testing kit was purchased from Promega. The RPMI-1640, F12, F12K, Fetal bovine serum and Penicillin-Streptomycin were purchased from BI. Glutamine and Dimethyl sulfoxide (DMSO) were purchased from Sigma. TT cells were cultured in F12K supplemented with 10% FBS and LC-2/ad cells were cultured in HamF12: RPMI1640 (1:1) supplemented with 10% FBS and 2 mM Glutamine.
(§2) To investigate whether a compound is able to inhibit the activity of RET fusion and/or mutation in cells, a mechanism-based assay using TT (RET C634W) and LC-2/ad (CCDCl6-RET) cell lines was developed. In this assay, the inhibition of RET fusion and/or mutation was reflected by the inhibition of cell proliferation of TT and LC-2/ad cells. Cells were plated into 96-well plates at the optimized cell density (TT: 5000 cells/well; LC-2/ad: 5000 cells/well). Plates were incubated at 37° C., with 5% CO2 for 24 h. Compounds were serially diluted and added to the plates with the final concentrations as 10000, 3333.3, 1111.1, […], 123.5, 41.2, 13.7, 4.6 and 1.5 nM. Plates were incubated at 37° C., with 5% CO2 for 72 h. An aliquot of 20 μL MTS/100 μL medium mixture solution were added to each well and the plates were incubated for exactly 2 h. The reaction was stopped by adding 25 μL 10% SDS to each well. The absorbance was measured by a microplate reader at 490 nm and 650 nm (reference wavelength). IC50 was calculated using GraphPad Prism 5.0.

[2] = test system: TT (RET C634W) cells; test: Cell proliferation assay (MTS), TT cells; assay type: cell-based; conditions: 72 h incubation, MTS readout
Method: as §1, §2

Row | Structure (SMILES) | IC50 ([1]; Homo sapiens, LC-2-ad, 72 h) [nM] | IC50 ([2]; Homo sapiens, TT, 72 h) [nM] | IC50 [1] [nM] | IC50 [2] [nM]
1 | Cn1cc(-c2cc(-c3ccc(N4CCN(CCS(=O)(=O)c5ccccc5)CC4)nc3)n3c(C#N)cnc3c2)cn1 [Example 38, 7-(1-methyl-1H-pyrazol-4-yl)-5-(6-(4-(2-(phenylsulfonyl)ethyl)piperazin-1-yl)pyridin-3-yl)imidazo[1,2-a]pyr-idine-3-carbonitrile] | 34 | 38 | – | –
2 | Cn1cc(-c2cc(-c3ccc(N4CCN(Cc5ccccn5)CC4)nc3)n3c(C#N)cnc3c2)cn1 [Example 52, 7-(1-methyl-1H-pyrazol-4-yl)-5-(6-(4-(pyridin-2-ylmethyl)piperazin-1-yl)pyridin-3-yl)imidazo[1,2-a]pyridine-3-carbonitrile] | 42 | 24 | – | –
3 | COc1ccc(CN2C3CC2CN(c2ccc(-c4cc(OCCC(O)C(F)(F)F)cc5ncc(C#N)n45)cn2)C3)cn1 (centres unmarked) [Example 59, 5-(6-(6-((6-Methoxypyridin-3-yl)methyl)-3,6-diazabicyclo[3.1.1]heptan-3-yl)pyridin-3-yl)-7-(4,4,4-trifluoro-3-hydroxybutoxy)imidazo[1,2-a]pyridine-3-carbonitrile] | 64 | 126 | – | –
4 | COc1ccc(CN2C3CC2CN(c2ccc(-c4cc(OCC5(O)CC5)cc5ncc(C#N)n45)cn2)C3)cn1 [Example 57B, 7-((1-Hydroxycyclopropyl)methoxy)-5-(6-(6-((6-methoxypyridin-3-yl)methyl)-3,6-diazabicyclo[3.1.1]heptan-3-yl)pyridin-3-yl)imidazo[1,2-a]pyridine-3-carbonitrile] | – | – | 115 | 127
5 | Cn1cc(-c2cc(-c3ccc(N4CCC(Oc5ccccn5)CC4)nc3)n3c(C#N)cnc3c2)cn1 [Example 18, 7-(1-methyl-1H-pyrazol-4-yl)-5-(6-(4-(pyridin-2-yloxy)piperidin-1-yl)pyr-idin-3-yl)imidazo[1,2-a]pyridine-3-carbonitrile] | 2 | 1 | – | –
6 | CO[C@@H](C(=O)N1CCN(c2ccc(-c3cc(-c4cnn(C)c4)cc4ncc(C#N)n34)cn2)CC1)c1ccccc1 [Example 14, (R)-5-(6-(4-(2-methoxy-2-phenylace-tyl)piperazin-1-yl)pyridin-3-yl)-7-(1-methyl-1H-pyrazol-4-yl)imidazo[1,2-a]pyridine-3-carbonitrile] | 13 | 6 | – | –
7 | CC(C)[C@@H](O)C(=O)N1CCN(c2ccc(-c3cc(-c4cnn(C)c4)cc4ncc(C#N)n34)cn2)CC1 [Example 17, (R)-5-(6-(4-(2-hydroxy-3-methylbuta-noyl)piperazin-1-yl)pyridin-3-yl)-7-(1-methyl-1H-pyrazol-4-yl)imidazo [1,2-a]pyridine-3-carbonitrile] | 45 | 48 | – | –
8 | CC(C)CC(=O)N1CCN(c2ccc(-c3cc(-c4cnn(C)c4)cc4ncc(C#N)n34)cn2)CC1 [Example 48, 7-(1-methyl-1H-pyrazol-4-yl)-5-(6-(4-(3-methylbutanoyl)piperazin-1-yl)pyridin-3-yl)imidazo[1,2-a]pyridine-3-carbonitrile] | 50 | 77 | – | –
9 | COc1ccc(OC2CCN(c3ccc(-c4cc(OCC5(O)CC5)cc5ncc(C#N)n45)cn3)CC2)cn1 [Example 68, 7-((1-hydroxycyclopropyl)methoxy)-5-(6-(4-((6-methoxypyridin-3-yl)oxy)piperidin-1-yl)pyridin-3-yl)imidazo[1,2-a]pyridine-3-carbonitrile] | 10 | 5 | – | –
10 | CC(C)OCCN1CCN(c2ccc(-c3cc(-c4cnn(C)c4)cc4ncc(C#N)n34)cn2)CC1 [Example 51, 5-(6-(4-(2-isopropoxyethyl)piperazin-1-yl)pyridin-3-yl)-7-(1-methyl-1H-pyrazol-4-yl)imidazo[1,2-a]pyridine-3-carbonitrile] | 40 | 44 | – | –
11 | Cn1cc(-c2cc(-c3ccc(N4CCN(C(=O)[C@H](O)c5ccccc5)CC4)nc3)n3c(C#N)cnc3c2)cn1 [Example 7, (R)-5-(6-(4-(2-hydroxy-2-phenylace-tyl)piperazin-1-yl)pyridin-3-yl)-7-(1-methyl-1H-pyrazol-4-yl)imidazo[1,2-a]pyridine-3-carbonitrile] | 16 | 11 | – | –
12 | Cn1cc(-c2cc(-c3ccc(N4CCN(C(=O)Cc5ccccn5)CC4)cc3)n3c(C#N)cnc3c2)cn1 [Example 45, 7-(1-methyl-1H-pyrazol-4-yl)-5-(4-(4-(2-(pyridin-2-yl)acetyl)piperazin-1-yl)phenyl)imidazo[1,2-a]pyridine-3-carbonitrile] | 50 | 66 | – | –
13 | Cn1cc(-c2cc(-c3ccc(N4CCC(O)(Cc5ccccn5)CC4)nc3)n3c(C#N)cnc3c2)cn1 [Example 21, 5-(6-(4-hydroxy-4-(pyridin-2-ylmeth-yl)piperidin-1-yl)pyridin-3-yl)-7-(1-methyl-1H-pyrazol-4-yl)imidazo[1,2-a]pyridine-3-carbonitrile] | 12 | 12 | – | –
14 | COc1ccc(C(=O)N2CCN(c3ccc(-c4cc(-c5cnn(C)c5)cc5ncc(C#N)n45)cn3)CC2)cn1 [Example 2, 5-(6-(4-(6-Methoxynicotinoyl)piperazin-1-yl)pyridin-3-yl)-7-(1-methyl-1H-pyrazol-4-yl)imidazo[1,2-a]pyridine-3-carbonitrile] | 54 | 63 | – | –
15 | COc1ccc(OC2CCN(c3ccc(-c4cc(OCC(O)C(F)(F)F)cc5ncc(C#N)n45)cn3)CC2)cn1 (centres unmarked) [Example 69, 5-(6-(4-((6-methoxypyridin-3-yl)oxy)pi-peridin-1-yl)pyridin-3-yl)-7-(3,3,3-trifluoro-2-hydroxypropoxy)imidazo[1,2-a]pyri-dine-3-carbonitrile] | 49 | 57 | – | –
16 | Cn1cc(-c2cc(-c3ccc(N4CCN(Cc5ccccc5)CC4)nc3)n3c(C#N)cnc3c2)cn1 [Example 33, 5-(6-(4-benzylpiperazin-1-yl)pyridin-3-yl)-7-(1-methyl-1H-pyrazol-4-yl) imidazo[1,2-a]pyridine-3-carbonitrile] | 17 | 34 | – | –
17 | COc1ccc(CN2CCN(c3ccc(-c4cc(-c5cnn(CCOC(C)C)c5)cc5ncc(C#N)n45)cn3)CC2)cn1 [Example 27, 7-(1-(2-isopropoxyethyl)-1H-pyrazol-4-yl)-5-(6-(4-((6-methoxypyridin-3-yl)methyl)piperazin-1-yl)pyridin-3-yl) imidazo[1,2-a]pyridine-3-carbonitrile] | 39 | 65 | – | –
18 | COc1ccc(OC2CCN(c3ccc(-c4cc(-c5cnn(C)c5)cc5ncc(C#N)n45)cn3)CC2)nn1 [Example 19, 5-(6-(4-((6-methoxypyridazin-3-yl)oxy)piperidin-1-yl)pyridin-3-yl)-7-(1-methyl-1H-pyrazol-4-yl)imidazo[1,2-a]pyridine-3-carbonitrile] | 6 | 1 | – | –
19 | CC(C)(O)COc1cc(-c2ccc(N3CCC(O)(Cc4ccccc4)CC3)nc2)n2c(C#N)cnc2c1 [Example 66, 5-(6-(4-benzyl-4-hydroxypiperidin-1-yl)pyridin-3-yl)-7-(2-hydroxy-2-methylpro-poxy)imidazo[1,2-a]pyridine-3-carbonitrile] | 55 | 117 | – | –
